Results taken from patent US7405206B2, “Anti-inflammatory androstane derivatives” (Glaxo Group Limited, priority 2001, dated 2008).

Key:
[1] = tested on: A549 cells stably transfected with a reporter gene containing the NF-κB responsive elements from the ELAM gene promoter coupled to sPAP; experiment: Functional in vitro assay of glucocorticoid agonist activity (NF-κB/ELAM-sPAP reporter, TNF stimulated); assay type: cell-based; details: compound 1 hour at 37° C., then TNF 10 ng/ml for 16 hours
Description: Pharmacological activity was assessed in a functional in vitro assay of glucocorticoid agonist activity which is generally predictive of anti-inflammatory or anti-allergic activity in vivo.
The functional assay was based on that described by K. P. Ray et al., Biochem J. (1997), 328, 707-715. A549 cells stably transfected with a reporter gene containing the NF-κB responsive elements from the ELAM gene promoter coupled to sPAP (secreted alkaline phosphatase) were treated with test compounds at appropriate doses for 1 hour at 37° C. The cells were then stimulated with tumour necrosis factor (TNF, 10 ng/ml) for 16 hours, at which time the amount of alkaline phosphatase produced is measured by a standard colourimetric assay. Dose response curves were constructed from which EC50 values were estimated.

Balb/c mice = experiment: Oxazolone induced contact hypersensitivity model (ear swelling); assay type: in vivo; details: topical to right ear 1 hour prior to and 3 hours post oxazolone challenge; ear thickness 24 hours post challenge
Description: Pharmacological activity in vivo was assessed using an oxazolone induced contact hypersensitivity model in Balb/c mice similar to that described by Cumberbatch et al., Immunology (2002), 105, 466-477.
Balb/c female mice (18-20 g) were sensitised to oxazolone by the addition of 50 μl to the shaved right flank, of 2.5% oxazolone in acetone:olive oil (4:1). Control (unsensitised) mice were dosed with acetone:olive oil. Five days later all mice were challenged by the addition of 25 μl of 0.25% oxazolone in acetone olive oil (4:1) to the dorsal surface of both ears under isoflourane anaesthesia. 10 μl of solution of test compound at the appropriate concentration or vehicle (absolute ethanol) was applied to the dorsal surface of the right ear 1 hour prior to and 3 hours post oxazolone challenge under isoflourane anaesthesia. The left ear remained untreated to allow assessment of systemic exposure. Ear thickness measurements were taken using an engineer's micrometer prior to the addition of steroid and again 24 hours post oxazolone challenge. Results expressed as the percentage inhibition of ear swelling, from which EC50 values were calculated.

Male CD rats = experiment: Rat model of thymus involution (systemic steroid effects); assay type: in vivo; details: daily for 3 days
Description: Systemic steroid effects were assessed in a rat model of thymus involution. Male CD rats were dosed intra-tracheally daily for 3 days with saline vehicle (20 μl Tween 80 in 100 ml saline) or with a suspension of test compound (dose volume 200 μL). On day 4 the animals were culled and the thymus removed and weighed.

[2] = Hydrolysis in human plasma; assay type: in vitro ADME; details: 37°, 5 μg/ml, LC-MS/MS
Description: Compounds were incubated at 37° in human plasma at a concentration of 5 μg/ml. Aliquots were taken at time 0 and every 30 seconds for the next 10 minutes and were extracted by protein precipitation and analysed by LC-MS/MS.

Question: For `COc1c(C(=O)OC2(C(=O)SC3CCOC3=O)C(C)CC3C4CC(F)C5=CC(=O)C=CC5(C)C4(F)C(O)CC32C)csc1Cl` (stereo not drawn) [Example 12, 17α-[(5-Chloro-4-methoxy-thiophene-3-carbonyl)oxy]-6α,9α-difluoro-11β-hydroxy-16α-methyl-3-oxo-androsta-1,4-diene-17β-carbothioic acid S-(2-oxo-tetrahydro-furan-3S-yl)ester], which EC50 [1] is on record?
Answer: Its EC50 is 40 nM.

Question: For `CC1CC2C3CC(F)C4=CC(=O)C=CC4(C)C3(F)C(O)CC2(C)C1(OC(=O)c1cc(Cl)sc1Cl)C(=O)SC1CCOC1=O` (stereo not drawn) [Example 15, 17α-[(2,5-Dichlorothiophene-3-carbonyl)oxy]-6α,9α-difluoro-11β-hydroxy-16α-methyl-3-oxo-androsta-1,4-diene-17β-carbothioic acid S-(2-oxo-tetrahydro-furan-3S-yl)ester], which EC50 [1] is on record?
Answer: The EC50 was 16 nM.

Question: With `C[C@@H]1C[C@H]2[C@@H]3C[C@H](F)C4=CC(=O)C=C[C@]4(C)[C@@]3(F)[C@@H](O)C[C@]2(C)[C@@]1(OC(=O)c1ccco1)C(=O)S[C@H]1CCOC1=O` [Example 1, 6α,9α-Difluoro-17α-[(2-furanylcarbonyl)oxy]-11β-hydroxy-16α-methyl-3-oxo-androsta-1,4-diene-17β-carbothioic acid S-(2-oxo-tetrahydro-furan-3S-yl)ester] as the compound, how does the “EC50 (inhibition of ear swelling)” value (Balb/c mice) read?
Answer: Its value is 0.3 µg.

Question: And the “effect on thymus weight” value (Male CD rats; 1000 μg/day intra-tracheally)?
Answer: Its value is “no effect”.

Question: What about the half-life [2] of the same compound?
Answer: Its half-life is 1.2 min.

Question: Which “reduction in thymus weight” value (Male CD rats; 100 mg/day intra-tracheally) does the source give for `CCCC1O[C@@H]2C[C@H]3[C@@H]4CCC5=CC(=O)C=C[C@]5(C)[C@H]4[C@@H](O)C[C@]3(C)[C@]2(C(=O)CO)O1` (stereo partly shown) [budesonide, reference compound] here?
Answer: The value was 65%.

Question: With `Cc1noc(C)c1C(=O)OC1(C(=O)SC2CCOC2=O)C(C)CC2C3CC(F)C4=CC(=O)C=CC4(C)C3(F)C(O)CC21C` (stereo not drawn) [Example 11, 6α,9α-Difluoro-17α-[(3,5-dimethylisoxazole-4-carbonyl)oxy]-11β-hydroxy-16α-methyl-3-oxo-androsta-1,4-diene-17β-carbothioic acid S-(2-oxo-tetrahydro-furan-3S-yl)ester] as the compound, how does the EC50 [1] read?
Answer: The EC50 was 28 nM.
